Measured values as given in US8163740B2, “6-substituted benzoxazines” (Hoffmann-La Roche Inc., priority 2008, dated 2012).

Target: recombinant human 5-HT5A receptor (Homo sapiens, UniProt P47898)
Assay: [3H]LSD radioligand binding assay
Settings: [3H]LSD (approximately 1 nM); membranes from HEK-EBNA cells transiently expressing 5-HT5A; Ki by Cheng-Prussoff equation; read-out: Ki
Description: A [^3H]LSD radioligand binding assay was used to determine the affinity of the compounds for the recombinant human 5-HT5A receptor, in membranes from transiently (cDNA) expressed 5-HT5A receptors in Human Embryonic Kidney-EBNA (HEK-EBNA) cells. Assay buffer consisted of Tris (50 mM) buffer containing 1 mM EGTA, 10 mM MgCl2 (pH 7.4) and 10 μM pargyline. The binding assay was carried out in 96-well-plates in the presence of [^3H]LSD (approximately 1 nM), approximately 2 μg/well of membrane protein, and 0.5 mg of Ysi-poly-1-lysine SPA beads in a final volume of 200 μl of buffer. Non-specific binding was defined using methiothepin 2 μM. Compounds were tested at 10 concentrations. All assays were conducted in duplicate and repeated at least two times. Assay plates were incubated for 120 min at room temperature before centrifugation. Bound ligand was determined using a Packard Topcount scintillation counter. IC50 values were calculated using a non-linear curve fitting program and Ki values calculated using the Cheng-Prussoff equation.

recombinant human 5-HT5A receptor, sequence (P47898 whole entry): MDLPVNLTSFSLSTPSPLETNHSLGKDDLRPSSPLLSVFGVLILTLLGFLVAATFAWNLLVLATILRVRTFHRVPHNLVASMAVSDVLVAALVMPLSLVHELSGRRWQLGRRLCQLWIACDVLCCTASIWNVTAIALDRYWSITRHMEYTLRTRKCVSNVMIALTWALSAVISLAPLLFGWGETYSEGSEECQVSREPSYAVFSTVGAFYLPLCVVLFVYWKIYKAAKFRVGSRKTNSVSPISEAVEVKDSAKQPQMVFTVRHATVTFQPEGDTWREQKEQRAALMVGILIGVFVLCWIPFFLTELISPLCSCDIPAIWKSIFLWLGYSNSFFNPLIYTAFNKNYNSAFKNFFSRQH

Ki | Compound
16.1 nM | COC[C@@H]1CN(CC(=O)Nc2ccc3c(c2)COC(N[C@@H]2CCc4ccccc42)=N3)C[C@@H](COC)N1C (mixture of isomers) [Example 158, 2-((3SR,5SR)-3,5-Bis-(methoxymethyl)-4-methyl-piperazin-1-yl)-N-[2-((R)-indan-1-ylamino)-4H-benzo[d][1,3]oxazin-6-yl]-acetamide]
368 nM | COc1cccc2c1C(NC1=Nc3ccc([N+](=O)[O-])cc3CO1)CO2 (racemic) [Example 5, rac-(4-Methoxy-2,3-dihydro-benzofuran-3-yl)-(6-nitro-4H-benzo[d][1,3]oxazin-2-yl)-amine]
20.7 nM | COc1cccc2c1C(NC1=Nc3ccc(NC(=O)CCl)cc3CO1)CO2 (racemic) [Example 8, rac-2-Chloro-N-[2-(4-methoxy-2,3-dihydro-benzofuran-3-ylamino)-4H-benzo[d][1,3]oxazin-6-yl]-acetamide]
1.26 nM | Nc1ccc2c(c1)COC(NC1CCc3cc(F)ccc31)=N2 (racemic) [Example 11, rac-N^2-(5-Fluoro-indan-1-yl)-4H-benzo[d][1,3]oxazine-2,6-diamine]
9.28 nM | COc1cccc2c1C(NC1=Nc3ccc(NC(=O)CN4CCN(C(C)C)CC4)cc3CO1)CO2 (racemic) [Example 12, rac-2-(4-Isopropyl-piperazin-1-yl)-N-[2-(4-methoxy-2,3-dihydro-benzofuran-3-ylamino)-4H-benzo[d][1,3]oxazin-6-yl]-acetamide]
4.37 nM | COc1cccc2c1C(NC1=Nc3ccc(NC(=O)NC4CCN(C(C)C)CC4)cc3CO1)CO2 (racemic) [Example 14, rac-1-(1-Isopropyl-piperidin-4-yl)-3-[2-(4-methoxy-2,3-dihydro-benzofuran-3-ylamino)-4H-benzo[d][1,3]oxazin-6-yl]-urea]
2.93 nM | COc1cccc2c1C(NC1=Nc3ccc(NC(=O)NC(C)C)cc3CO1)CO2 (racemic) [Example 16, rac-1-Isopropyl-3-[2-(4-methoxy-2,3-dihydro-benzofuran-3-ylamino)-4H-benzo[d][1,3]oxazin-6-yl]-urea]
26.1 nM | COCC(=O)Nc1ccc2c(c1)COC(NC1COc3cccc(OC)c31)=N2 (racemic) [Example 17, rac-2-Methoxy-N-[2-(4-methoxy-2,3-dihydro-benzofuran-3-ylamino)-4H-benzo[d][1,3]oxazin-6-yl]-acetamide]
1.36 nM | O=C(Nc1ccc2c(c1)COC(NC1CCc3cc(F)ccc31)=N2)C1CC1 (racemic) [Example 20, rac-Cyclopropanecarboxylic acid [2-(5-fluoro-indan-1-ylamino)-4H-benzo[d][1,3]oxazin-6-yl]-amide]
5.5 nM | COCC(=O)Nc1ccc2c(c1)COC(NC1CCc3cc(F)ccc31)=N2 (racemic) [Example 21, rac-N-[2-(5-Fluoro-indan-1-ylamino)-4H-benzo[d][1,3]oxazin-6-yl]-2-methoxy-acetamide]
1.06 nM | COc1cccc2c1C(NC1=Nc3ccc(NC(=O)C4CC4)cc3CO1)CC2 (racemic) [Example 25, rac-Cyclopropanecarboxylic acid [2-(7-methoxy-indan-1-ylamino)-4H-benzo[d][1,3]oxazin-6-yl]-amide]
4.26 nM | Nc1ccc2c(c1)COC(NC1COc3cc(F)ccc31)=N2 (racemic) [Example 34, rac-N^2-(6-Fluoro-2,3-dihydro-benzofuran-3-yl)-4H-benzo[d][1,3]oxazine-2,6-diamine]
56.4 nM | COCCNCC(=O)Nc1ccc2c(c1)COC(NC1COc3cc(F)ccc31)=N2 (racemic) [Example 42, rac-N-[2-(6-Fluoro-2,3-dihydro-benzofuran-3-ylamino)-4H-benzo[d][1,3]oxazin-6-yl]-2-(2-methoxy-ethylamino)-acetamide]
50.3 nM | CC(C)(O)CNCC(=O)Nc1ccc2c(c1)COC(NC1COc3cc(F)ccc31)=N2 (racemic) [Example 43, rac-N-[2-(6-Fluoro-2,3-dihydro-benzofuran-3-ylamino)-4H-benzo[d][1,3]oxazin-6-yl]-2-(2-hydroxy-2-methyl-propylamino)-acetamide]
26.9 nM | COc1cccc2c1C(NC1=Nc3ccc(NS(=O)(=O)N4CCCCC4)cc3CO1)CO2 (racemic) [Example 50, rac-Piperidine-1-sulfonic acid [2-(4-methoxy-2,3-dihydro-benzofuran-3-ylamino)-4H-benzo[d][1,3]oxazin-6-yl]-amide]
23.7 nM | COc1cccc2c1C(NC1=Nc3ccc(NC(C)=O)cc3CO1)CO2 (racemic) [Example 51, rac-N-[2-(4-Methoxy-2,3-dihydro-benzofuran-3-ylamino)-4H-benzo[d][1,3]oxazin-6-yl]-acetamide]

Second part, the compound before the results:

Compound | Ki
COc1cccc2c1C(NC1=Nc3ccc(N)cc3CO1)CO2 (racemic) [Example 6, rac-N^2-(4-Methoxy-2,3-dihydro-benzofuran-3-yl)-4H-benzo[d][1,3]oxazine-2,6-diamine] | 7.83 nM
COc1cccc2c1C(NC1=Nc3ccc(NC(=O)CN4CCN(C)CC4)cc3CO1)CO2 (racemic) [Example 9, rac-N-[2-(4-Methoxy-2,3-dihydro-benzofuran-3-ylamino)-4H-benzo[d][1,3]oxazin-6-yl]-2-(4-methyl-piperazin-1-yl)-acetamide] | 5.69 nM
COc1cccc2c1C(NC1=Nc3ccc(N)cc3CO1)CC2 (racemic) [Example 10, rac-N^2-(7-Methoxy-indan-1-yl)-4H-benzo[d][1,3]oxazine-2,6-diamine] | 1.2 nM
COc1cccc2c1C(NC1=Nc3ccc(NC(=O)CN4CCOCC4)cc3CO1)CO2 (racemic) [Example 13, rac-N-[2-(4-Methoxy-2,3-dihydro-benzofuran-3-ylamino)-4H-benzo[d][1,3]oxazin-6-yl]-2-morpholin-4-yl-acetamide] | 40.6 nM
COc1cccc2c1C(NC1=Nc3ccc(NC(=O)N(C)C4CCN(C(C)C)CC4)cc3CO1)CO2 (racemic) [Example 15, rac-1-(1-Isopropyl-piperidin-4-yl)-3-[2-(4-methoxy-2,3-dihydro-benzofuran-3-ylamino)-4H-benzo[d][1,3]oxazin-6-yl]-1-methyl-urea] | 6.08 nM
COc1cccc2c1C(NC1=Nc3ccc(N)cc3CO1)CCC2 (racemic) [Example 22, rac-N^2-(8-Methoxy-1,2,3,4-tetrahydro-naphthalen-1-yl)-4H-benzo[d][1,3]oxazine-2,6-diamine] | 7.72 nM
COc1cccc2c1C(NC1=Nc3ccc(NC(=O)C4CC4)cc3CO1)CCC2 (racemic) [Example 23, rac-Cyclopropanecarboxylic acid [2-(8-methoxy-1,2,3,4-tetrahydro-naphthalen-1-ylamino)-4H-benzo[d][1,3]oxazin-6-yl]-amide] | 1.85 nM
COCC(=O)Nc1ccc2c(c1)COC(NC1CCc3cccc(OC)c31)=N2 (racemic) [Example 24, rac-2-Methoxy-N-[2-(7-methoxy-indan-1-ylamino)-4H-benzo[d][1,3]oxazin-6-yl]-acetamide] | 4.83 nM
CN1CCN(CC(=O)Nc2ccc3c(c2)COC(NC2COc4cc(F)ccc42)=N3)CC1 (racemic) [Example 44, rac-N-[2-(6-Fluoro-2,3-dihydro-benzofuran-3-ylamino)-4H-benzo[d][1,3]oxazin-6-yl]-2-(4-methyl-piperazin-1-yl)-acetamide] | 6.5 nM
O=C(CN1CCOCC1)Nc1ccc2c(c1)COC(NC1COc3cc(F)ccc31)=N2 (racemic) [Example 45, rac-N-[2-(6-Fluoro-2,3-dihydro-benzofuran-3-ylamino)-4H-benzo[d][1,3]oxazin-6-yl]-2-morpholin-4-yl-acetamide] | 40.7 nM
COc1cccc2c1C(NC1=Nc3ccc(NS(=O)(=O)N(C)C)cc3CO1)CO2 (racemic) [Example 49, rac-N,N-(Dimethyl)-N′-{2-(4-Methoxy-2,3-dihydro-benzofuran-3-ylamino)-4H-benzo[d][1,3]oxazin-6-yl}-sulfamide] | 21.1 nM
COc1cccc2c1C(NC1=Nc3ccc(NC(C)=O)cc3CO1)CC2 (racemic) [Example 52, rac-N-[2-(7-Methoxy-indan-1-ylamino)-4H-benzo[d][1,3]oxazin-6-yl]-acetamide] | 4.98 nM
Fc1ccc2c(c1)CCC2NC1=Nc2ccc(Br)cc2CO1 (racemic) [Example 53, rac-(6-Bromo-4H-benzo[d][1,3]oxazin-2-yl)-(5-fluoro-indan-1-yl)-amine] | 43.6 nM
COc1cccc2c1C(NC1=Nc3ccc(NC(=O)CN4CCOCC4)cc3CO1)CC2 (racemic) [Example 55, rac-N-[2-(7-Methoxy-indan-1-ylamino)-4H-benzo[d][1,3]oxazin-6-yl]-2-morpholin-4-yl-acetamide] | 10.3 nM
O=C(CN1CCOCC1)Nc1ccc2c(c1)COC(NC1CCc3cc(F)ccc31)=N2 (racemic) [Example 56, rac-N-[2-(5-Fluoro-indan-1-ylamino)-4H-benzo[d][1,3]oxazin-6-yl]-2-morpholin-4-yl-acetamide] | 13 nM
Fc1ccc2c(c1)CCC2NC1=Nc2ccc(Nc3cccc(C(F)(F)F)n3)cc2CO1 (racemic) [Example 57, rac-N^2-(5-Fluoro-indan-1-yl)-N^6-(6-trifluoromethyl-pyridin-2-yl)-4H-benzo[d][1,3]oxazine-2,6-diamine] | 6.06 nM
Fc1ccc2c(c1)CCC2NC1=Nc2ccc(Nc3nccc(C(F)(F)F)n3)cc2CO1 (racemic) [Example 58, rac-N^2-(5-Fluoro-indan-1-yl)-N^6-(4-trifluoromethyl-pyrimidin-2-yl)-4H-benzo[d][1,3]oxazine-2,6-diamine] | 6.8 nM
